The values that follow come from publication PMC11606603, “The membrane domains of mammalian adenylyl cyclases are lipid receptors” (eLife, 2024).

“And” between values parts separate entries of the source, which are not always exact repeats. Equal entries are not always repeated.

Common to all, as to type: biochemical
One test has as its target T1, mAC7 (Homo sapiens, UniProt P51828).
T1 construct: Human mAC genes were from GenScript and fitted with a C-terminal FLAG-tag; FLAG (C); made in house; host or cells: HEK293, permanently transfected; membrane preparation
Kind of test: AC assay, Gsα-stimulated mAC7 in membranes from transfected HEK293 cells. The note with it: Figure 5-figure supplement 2 left, 20 µM. Here is the method:
(§1) hAC sequences were from NCBI were: ADCY1: NM_021116.3; ADCY2: NM_020546.2; ADCY3: NM_004036.4; ADCY4: NM_001198568.2; ADCY5: NM_183357.2; ADCY6: NM_015270.4; ADCY7: NM_001114.4; ADCY8: NM_001115.2; ADCY9: NM_001116.3. Human mAC genes were from GenScript and fitted with a C-terminal FLAG-tag. […] The gene was synthesized by GenScript. HEK293 cells were maintained in Dulbeccos Modified Eagle Medium (DMEM) with 10% fetal bovine serum at 37°C and 5% CO2. Transfection with AC plasmids was with PolyJet (SignaGen, Frederick, MD, USA). Permanent cell lines were generated by selection for 7 days with 600 µg/ml G418 and maintained with 300 µg/ml For membrane preparation, cells were tyrpsinized, collected by centrifugation (3000 × g, 5 min) and lysed and homogenized in 20 mM HEPES, pH 7.5, 1 mM Ethylenediaminetetraacetic acid (EDTA), 2 mM MgCl2, 1 mM Dithiothreitol (DTT), one tablet of cOmplete, EDTA-free (per 50 ml) and 250 mM sucrose by 20 strokes in a potter homogenizer on ice. Debris was removed (5 min at 1000 × g, 0°C), membranes were collected at 100,000 × g, 60 min at 0°C, suspended and stored at −80°C in 20 mM MOPS, pH 7.5, 0.5 mM EDTA, 2 mM MgCl2. […] Three cerebral cortices were dissected and homogenized in 4.5 ml cold 48 mM Tris–HCl, pH 7.4, 12 mM MgC1_2, and 0.1 mM Ethylene glycol-bis(β-aminoethyl ether)-N,N,N′,N′-tetraacetic acid (EGTA) with a Polytron hand disperser (Kinematica AG, Switzerland). […] The pellet was washed once with 5 ml 1 mM KHCO3. The final suspension in 2 ml 1 mM KHCO3 was stored in aliquots at −80°C.
(§2) In a volume of 10 μl, AC activities were measured using 1 mM ATP, 2 mM MgCl2, 3 mM creatine phosphate, 60 μg/ml creatine kinase, and 50 mM MOPS pH 7.5. The cAMP assay kit from Cisbio (Codolet, France) was used for detection according to the supplier’s instructions. For each assay, a cAMP standard curve was established. EC50 and IC50 values were calculated by GraphPad Prism version 8.4.3 for Windows, GraphPad Software, San Diego, CA, USA, https://www.graphpad.com .

A further test has as its target T2, mAC5 (Homo sapiens, UniProt O95622).
T2 construct: Human mAC genes were from GenScript and fitted with a C-terminal FLAG-tag; FLAG (C); made in house; host or cells: HEK293, permanently transfected; membrane preparation
Kind of test: AC assay, Gsα-stimulated mAC5 in membranes from transfected HEK293 cells. The following applies: 20µM fatty acid concentration. As to the method:
as §1, §2

Another test has as its target T3, mAC3 (Homo sapiens, UniProt O60266).
T3 construct: Human mAC genes were from GenScript and fitted with a C-terminal FLAG-tag; FLAG (C); made in house; host or cells: HEK293, permanently transfected; membrane preparation
In words: AC assay, Gsα-stimulated mAC3 in membranes from transfected HEK293 cells. The following applies: for Effect of lipid on 300 nM Gsα-stimulated mAC3: 20 µM, in words; for mAC3 activity [%] (100% = 300nM Gsα stimulation): fatty acid 20 µM, individual experiments. Here is the method: as §1, §2

The target in a further test is T4, mAC1 (Homo sapiens, UniProt Q08828).
T4 construct: Human mAC genes were from GenScript and fitted with a C-terminal FLAG-tag; FLAG (C); made in house; host or cells: HEK293, permanently transfected; membrane preparation
T4 sequence (Q08828 whole entry): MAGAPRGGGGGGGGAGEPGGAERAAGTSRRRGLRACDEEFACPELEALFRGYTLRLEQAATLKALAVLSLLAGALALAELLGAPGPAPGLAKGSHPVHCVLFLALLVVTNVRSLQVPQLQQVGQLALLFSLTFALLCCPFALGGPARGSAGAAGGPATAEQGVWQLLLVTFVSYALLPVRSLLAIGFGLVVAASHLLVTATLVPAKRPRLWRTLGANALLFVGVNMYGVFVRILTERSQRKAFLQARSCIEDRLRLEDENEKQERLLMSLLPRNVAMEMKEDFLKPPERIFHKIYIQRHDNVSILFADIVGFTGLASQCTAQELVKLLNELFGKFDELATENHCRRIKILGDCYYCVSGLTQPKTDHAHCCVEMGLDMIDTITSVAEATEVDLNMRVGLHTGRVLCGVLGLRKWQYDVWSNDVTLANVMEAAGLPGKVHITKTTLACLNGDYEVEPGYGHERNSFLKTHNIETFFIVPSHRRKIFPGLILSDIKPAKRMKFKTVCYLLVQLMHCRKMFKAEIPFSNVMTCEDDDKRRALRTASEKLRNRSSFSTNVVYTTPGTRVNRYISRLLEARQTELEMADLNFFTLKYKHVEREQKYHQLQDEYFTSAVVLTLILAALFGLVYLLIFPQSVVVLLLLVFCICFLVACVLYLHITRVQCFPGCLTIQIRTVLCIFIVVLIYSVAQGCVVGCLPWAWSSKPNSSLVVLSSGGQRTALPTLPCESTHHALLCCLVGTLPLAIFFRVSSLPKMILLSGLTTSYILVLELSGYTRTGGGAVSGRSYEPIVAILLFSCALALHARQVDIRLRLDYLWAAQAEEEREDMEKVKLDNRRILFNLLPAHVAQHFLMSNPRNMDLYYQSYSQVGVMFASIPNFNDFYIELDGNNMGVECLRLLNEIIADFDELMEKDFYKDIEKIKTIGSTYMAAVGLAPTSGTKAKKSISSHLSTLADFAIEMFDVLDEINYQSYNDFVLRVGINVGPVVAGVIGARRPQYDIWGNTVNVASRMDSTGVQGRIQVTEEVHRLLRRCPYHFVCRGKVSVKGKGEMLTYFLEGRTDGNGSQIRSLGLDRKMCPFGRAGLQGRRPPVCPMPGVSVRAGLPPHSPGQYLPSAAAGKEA
Kind of test: AC assay, Gsα-stimulated mAC1 in membranes from transfected HEK293 cells. The following applies: 20 µM fatty acid; 300 nM Gsα; single experiments. Here is the method:
as §1, §2

In the next test the target is T5, mAC6 (Homo sapiens, UniProt O43306).
T5 construct: Human mAC genes were from GenScript and fitted with a C-terminal FLAG-tag; FLAG (C); made in house; host or cells: HEK293, permanently transfected; membrane preparation
T5 sequence (O43306 whole entry): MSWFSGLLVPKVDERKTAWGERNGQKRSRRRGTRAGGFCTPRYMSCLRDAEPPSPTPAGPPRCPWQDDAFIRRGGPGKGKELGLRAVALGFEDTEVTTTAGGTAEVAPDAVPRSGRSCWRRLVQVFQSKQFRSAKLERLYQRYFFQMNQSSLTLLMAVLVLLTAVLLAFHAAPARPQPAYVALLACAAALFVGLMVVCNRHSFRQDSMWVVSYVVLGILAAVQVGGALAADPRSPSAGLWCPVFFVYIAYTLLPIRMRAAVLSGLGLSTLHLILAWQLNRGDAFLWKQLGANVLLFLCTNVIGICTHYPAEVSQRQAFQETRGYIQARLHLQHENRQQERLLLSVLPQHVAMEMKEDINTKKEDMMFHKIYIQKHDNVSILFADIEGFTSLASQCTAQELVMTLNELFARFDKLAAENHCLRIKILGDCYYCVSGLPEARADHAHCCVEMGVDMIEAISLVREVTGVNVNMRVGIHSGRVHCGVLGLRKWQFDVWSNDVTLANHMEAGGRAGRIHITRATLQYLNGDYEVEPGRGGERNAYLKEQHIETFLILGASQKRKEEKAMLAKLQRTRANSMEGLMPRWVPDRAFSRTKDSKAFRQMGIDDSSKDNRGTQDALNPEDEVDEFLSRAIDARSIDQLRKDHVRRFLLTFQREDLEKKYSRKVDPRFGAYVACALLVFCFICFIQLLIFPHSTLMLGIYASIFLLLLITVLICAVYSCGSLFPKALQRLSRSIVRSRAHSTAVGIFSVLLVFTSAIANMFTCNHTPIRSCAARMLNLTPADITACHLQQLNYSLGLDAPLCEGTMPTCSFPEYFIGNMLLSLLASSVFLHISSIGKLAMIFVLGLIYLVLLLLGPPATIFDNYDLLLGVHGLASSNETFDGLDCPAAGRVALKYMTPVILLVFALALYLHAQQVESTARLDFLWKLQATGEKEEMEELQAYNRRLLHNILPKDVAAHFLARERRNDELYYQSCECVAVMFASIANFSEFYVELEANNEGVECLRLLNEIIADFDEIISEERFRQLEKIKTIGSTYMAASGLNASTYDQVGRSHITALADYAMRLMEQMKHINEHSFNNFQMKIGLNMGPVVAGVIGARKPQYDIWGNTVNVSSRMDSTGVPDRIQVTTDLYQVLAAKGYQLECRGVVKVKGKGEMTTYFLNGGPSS
In words: AC assay, Gsα-stimulated mAC6 in membranes from transfected HEK293 cells. The following applies: 20µM fatty acid concentration. Here is the method: as §1, §2

Another test has as its target T6, mAC8 (Homo sapiens, UniProt P40145).
T6 construct: Human mAC genes were from GenScript and fitted with a C-terminal FLAG-tag; FLAG (C); made in house; host or cells: HEK293, permanently transfected; membrane preparation
In words: AC assay, Gsα-stimulated mAC8 in membranes from transfected HEK293 cells. The following applies: 20µM fatty acid concentration. Here is the method:
as §1, §2

For a further test, the target named is T7, mAC2 (Homo sapiens, UniProt Q08462).
T7 construct: Human mAC genes were from GenScript and fitted with a C-terminal FLAG-tag; FLAG (C); made in house; host or cells: HEK293, permanently transfected; membrane preparation
Kind of test: AC assay, Gsα-stimulated mAC2 in membranes from transfected HEK293 cells. The note with it: Figure 5-figure supplement 1 left, 20 µM. As to the method:
as §1, §2

The target of a further test is T8, mAC4 (Homo sapiens, UniProt Q8NFM4).
T8 construct: Human mAC genes were from GenScript and fitted with a C-terminal FLAG-tag; FLAG (C); made in house; host or cells: HEK293, permanently transfected; membrane preparation
T8 sequence (Q8NFM4 1-1077): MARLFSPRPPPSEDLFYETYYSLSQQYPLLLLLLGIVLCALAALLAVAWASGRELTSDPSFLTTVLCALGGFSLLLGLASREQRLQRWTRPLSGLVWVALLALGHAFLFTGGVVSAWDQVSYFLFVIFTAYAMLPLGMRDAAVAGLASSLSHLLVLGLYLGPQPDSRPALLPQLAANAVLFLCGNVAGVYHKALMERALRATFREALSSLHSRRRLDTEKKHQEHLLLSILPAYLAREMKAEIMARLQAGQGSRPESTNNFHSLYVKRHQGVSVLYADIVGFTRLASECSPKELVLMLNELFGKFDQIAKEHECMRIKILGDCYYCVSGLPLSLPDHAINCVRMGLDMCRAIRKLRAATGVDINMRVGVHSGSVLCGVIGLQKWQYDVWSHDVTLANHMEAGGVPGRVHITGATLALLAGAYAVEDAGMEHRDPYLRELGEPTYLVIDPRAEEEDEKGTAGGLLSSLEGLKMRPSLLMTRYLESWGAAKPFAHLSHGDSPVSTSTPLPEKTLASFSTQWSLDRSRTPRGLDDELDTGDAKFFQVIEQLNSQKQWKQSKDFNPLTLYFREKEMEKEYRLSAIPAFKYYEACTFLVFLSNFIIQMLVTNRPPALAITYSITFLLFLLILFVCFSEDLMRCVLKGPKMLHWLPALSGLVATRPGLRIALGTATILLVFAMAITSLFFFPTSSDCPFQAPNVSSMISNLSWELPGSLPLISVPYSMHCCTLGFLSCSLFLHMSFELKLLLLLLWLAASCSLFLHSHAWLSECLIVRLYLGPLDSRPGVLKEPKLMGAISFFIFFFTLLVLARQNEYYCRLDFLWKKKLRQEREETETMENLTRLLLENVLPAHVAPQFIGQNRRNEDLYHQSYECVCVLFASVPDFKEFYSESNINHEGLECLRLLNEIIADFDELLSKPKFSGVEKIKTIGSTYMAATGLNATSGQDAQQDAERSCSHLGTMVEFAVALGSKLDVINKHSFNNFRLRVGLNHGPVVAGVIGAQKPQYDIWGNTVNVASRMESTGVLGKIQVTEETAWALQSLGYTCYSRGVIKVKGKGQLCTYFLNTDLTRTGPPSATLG
In words: AC assay, Gsα-stimulated mAC4 in membranes from transfected HEK293 cells. The following applies: 20 µM fatty acid; 300 nM Gsα; single experiments. Here is the method:
as §1, §2

The next test addresses T9, mAC9 (Homo sapiens, UniProt O60503).
T9 construct: Human mAC genes were from GenScript and fitted with a C-terminal FLAG-tag; FLAG (C); made in house; host or cells: HEK293, permanently transfected; membrane preparation
Kind of test: AC assay, Gsα-stimulated mAC9 in membranes from transfected HEK293 cells. The note with it: for mAC9 activity (%);(100% = Gsα stimulation) stimulated by 300nM Gsα / mAC9 activity [%] (100% = 300nM Gsα stimulation); 20µM fatty acid concentration: single experiments. Here is the method: as §1, §2

T2 sequence (O95622 whole entry): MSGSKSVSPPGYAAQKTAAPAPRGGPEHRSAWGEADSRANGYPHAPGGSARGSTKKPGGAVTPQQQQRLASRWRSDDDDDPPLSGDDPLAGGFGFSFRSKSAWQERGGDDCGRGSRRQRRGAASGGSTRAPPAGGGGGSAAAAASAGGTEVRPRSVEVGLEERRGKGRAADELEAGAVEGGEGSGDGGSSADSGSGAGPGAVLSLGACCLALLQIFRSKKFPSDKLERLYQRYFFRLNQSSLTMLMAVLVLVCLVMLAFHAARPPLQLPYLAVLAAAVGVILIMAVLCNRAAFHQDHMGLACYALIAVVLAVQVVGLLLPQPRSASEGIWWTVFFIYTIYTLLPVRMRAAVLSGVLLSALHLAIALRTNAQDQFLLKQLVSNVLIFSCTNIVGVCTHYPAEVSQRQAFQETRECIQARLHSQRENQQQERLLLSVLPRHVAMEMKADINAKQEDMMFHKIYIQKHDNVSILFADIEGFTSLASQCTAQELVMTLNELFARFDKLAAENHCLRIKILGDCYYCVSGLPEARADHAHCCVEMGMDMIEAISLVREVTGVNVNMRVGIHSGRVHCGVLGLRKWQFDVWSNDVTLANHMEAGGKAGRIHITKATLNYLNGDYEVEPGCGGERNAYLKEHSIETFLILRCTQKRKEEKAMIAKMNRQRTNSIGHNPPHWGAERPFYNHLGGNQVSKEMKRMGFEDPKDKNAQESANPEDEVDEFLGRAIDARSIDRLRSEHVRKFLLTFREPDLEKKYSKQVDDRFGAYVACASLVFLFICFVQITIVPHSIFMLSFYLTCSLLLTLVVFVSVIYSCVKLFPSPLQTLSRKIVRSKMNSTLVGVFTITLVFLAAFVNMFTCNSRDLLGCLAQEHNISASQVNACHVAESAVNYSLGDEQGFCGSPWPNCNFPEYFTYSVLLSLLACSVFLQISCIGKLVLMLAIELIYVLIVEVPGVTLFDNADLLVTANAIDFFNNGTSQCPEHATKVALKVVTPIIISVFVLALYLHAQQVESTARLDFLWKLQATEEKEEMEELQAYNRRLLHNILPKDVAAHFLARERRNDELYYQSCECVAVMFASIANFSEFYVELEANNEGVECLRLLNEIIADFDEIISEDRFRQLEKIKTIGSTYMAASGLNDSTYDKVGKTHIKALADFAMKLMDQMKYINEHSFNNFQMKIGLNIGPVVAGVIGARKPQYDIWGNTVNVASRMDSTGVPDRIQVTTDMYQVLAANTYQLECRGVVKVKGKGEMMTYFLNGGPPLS
T3 sequence (O60266 whole entry): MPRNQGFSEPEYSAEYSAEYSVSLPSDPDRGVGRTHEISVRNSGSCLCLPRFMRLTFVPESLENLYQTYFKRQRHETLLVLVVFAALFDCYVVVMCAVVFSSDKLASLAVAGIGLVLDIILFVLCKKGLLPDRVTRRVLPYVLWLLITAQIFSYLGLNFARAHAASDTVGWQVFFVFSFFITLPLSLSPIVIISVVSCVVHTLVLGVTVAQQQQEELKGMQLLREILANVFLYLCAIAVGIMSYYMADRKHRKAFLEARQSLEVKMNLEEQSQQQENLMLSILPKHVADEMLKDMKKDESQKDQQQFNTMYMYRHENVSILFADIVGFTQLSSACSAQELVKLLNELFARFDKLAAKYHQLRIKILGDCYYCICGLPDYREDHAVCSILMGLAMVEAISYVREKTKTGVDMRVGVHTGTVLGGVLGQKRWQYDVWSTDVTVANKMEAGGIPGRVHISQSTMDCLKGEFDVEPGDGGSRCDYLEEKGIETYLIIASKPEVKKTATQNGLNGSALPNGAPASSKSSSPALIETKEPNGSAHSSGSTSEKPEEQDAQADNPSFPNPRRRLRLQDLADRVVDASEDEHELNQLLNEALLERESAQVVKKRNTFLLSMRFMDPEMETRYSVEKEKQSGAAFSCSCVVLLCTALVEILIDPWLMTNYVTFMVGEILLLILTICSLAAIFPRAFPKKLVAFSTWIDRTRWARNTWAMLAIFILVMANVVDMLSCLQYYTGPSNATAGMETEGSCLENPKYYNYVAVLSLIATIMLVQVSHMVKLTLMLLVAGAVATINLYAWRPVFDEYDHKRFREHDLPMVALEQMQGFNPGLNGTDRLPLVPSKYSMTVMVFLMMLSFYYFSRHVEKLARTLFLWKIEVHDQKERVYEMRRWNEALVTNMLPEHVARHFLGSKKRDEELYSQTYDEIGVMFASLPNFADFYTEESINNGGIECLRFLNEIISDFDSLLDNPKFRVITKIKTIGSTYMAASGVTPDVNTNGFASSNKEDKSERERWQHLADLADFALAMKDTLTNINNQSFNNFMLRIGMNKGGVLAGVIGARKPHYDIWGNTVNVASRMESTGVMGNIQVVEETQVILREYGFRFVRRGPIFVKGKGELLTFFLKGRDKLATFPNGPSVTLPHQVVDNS
T3 sequence (P63092 whole entry Q227L partner): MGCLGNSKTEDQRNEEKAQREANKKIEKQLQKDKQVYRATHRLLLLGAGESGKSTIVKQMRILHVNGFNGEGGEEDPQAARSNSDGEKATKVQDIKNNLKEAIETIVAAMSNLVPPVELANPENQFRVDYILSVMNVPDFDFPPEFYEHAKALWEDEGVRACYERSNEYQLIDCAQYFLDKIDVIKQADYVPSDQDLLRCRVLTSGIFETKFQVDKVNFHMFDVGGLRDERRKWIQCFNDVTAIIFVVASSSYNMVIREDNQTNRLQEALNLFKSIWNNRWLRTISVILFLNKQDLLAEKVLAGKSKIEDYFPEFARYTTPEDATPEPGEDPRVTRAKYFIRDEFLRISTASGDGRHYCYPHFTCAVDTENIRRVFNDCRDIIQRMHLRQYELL

`CCCCCCCC/C=C\CCCCCCCC(N)=O` [Oleamide, Oleamide ((9Z)-octadecenamide)]: the “mAC7 activity [%] (100% = 300nM Gsα stimulation); 20µM fatty acid concentration” value (shortened to “mAC7 activity [%]”) on mAC7 was 107% and 99%. On mAC5, the “mAC5 activity [%] (100% = 300nM Gsα stimulation)” value (“mAC5 activity [%]” below) is 97% and 111%. For the same compound, on mAC3, the “Effect of lipid on 300 nM Gsα-stimulated mAC3” value is on record as “less efficacious”; the “mAC3 activity [%] (100% = 300nM Gsα stimulation)” value (shortened to “mAC3 activity [%]”) is 154% and 144% and 201% and 238% and 301% and 167% and 90% and 168%. Moreover, at mAC1, the “mAC1 activity [%] (100% = 300nM Gsα stimulation); 20µM fatty acid concentration” value (“mAC1 activity [%]” for short) was 99% and 109%. The “mAC6 activity [%] (100% = 300nM Gsα stimulation)” value (shortened to “mAC6 activity [%]”) on mAC6 is 98% and 77%. Moreover, on mAC8, the “mAC8 activity [%] (100% = 300nM Gsα stimulation)” value (“mAC8 activity [%]” for short) is 104% and 74%. For the same compound, the “mAC2 activity [%] (100% = 300nM Gsα stimulation); 20µM fatty acid concentration” value (“mAC2 activity [%]” below) on mAC2 is 133% and 84%. On mAC4, the “mAC4 activity [%] (100% = 300nM Gsα stimulation); 20µM fatty acid concentration” value (shortened to “mAC4 activity [%]”) is 104% and 64% and 83%.
Take `CCCCC/C=C\C/C=C\CCCCCCCC(=O)O` [Linoleic acid, Linoleic ((9Z,12Z)-octadecadienoic) acid]: at mAC7, the “mAC7 activity [%]” value is 135% and 130%. Further, the “mAC5 activity [%]” value on mAC5 is 112% and 153%. Moreover, the “mAC9 activity (%);(100% = Gsα stimulation) stimulated by 300nM Gsα” value on mAC9 (1 µM fatty acid) was 145% and 101% and 154% and 180%; on mAC9 (3 µM fatty acid) it was 129% and 139% and 117% and 119%; on mAC9 (6 µM fatty acid) it was 164% and 205% and 170% and 134% and 195%; on mAC9 (10 µM fatty acid), 240% and 217% and 225% and 306% and 322% and 286% and 203%. Moreover, on mAC3, the “Effect of lipid on 300 nM Gsα-stimulated mAC3” value is listed as “efficient enhancers”. Moreover, on mAC3, the “mAC3 activity [%]” value was 376% and 503% and 335% and 235% and 456%. In addition, the “mAC1 activity [%]” value at mAC1 was 62% and 76% and 95%. In addition, the “mAC6 activity [%]” value on mAC6 is 105% and 198% and 128%. For the same compound, at mAC8, the “mAC8 activity [%]” value was 119% and 212% and 115% and 129%. The “mAC2 activity [%]” value on mAC2 is 118% and 99% and 198% and 131%.
In the case of `O=C(O)CCCCCCCCCCCCCCCCCCC(=O)O` [Octadecane-(COOH)2, 1,18-Octadecanedicarboxylic acid], the “mAC7 activity [%]” value on mAC7 was 81% and 97%. Moreover, the “mAC5 activity [%]” value on mAC5 was 102% and 118% and 78%. The “mAC9 activity [%] (100% = 300nM Gsα stimulation); 20µM fatty acid concentration” value at mAC9 is 102% and 67%. Further, the “mAC3 activity [%]” value on mAC3 is 104% and 106% and 66%. For the same compound, the “mAC1 activity [%]” value on mAC1 is 88% and 87% and 108%. Besides, at mAC6, the “mAC6 activity [%]” value was 83% and 136% and 76%. Further, the “mAC2 activity [%]” value on mAC2 was 101% and 81% and 91%. For the same compound, the “mAC4 activity [%]” value at mAC4 was 91% and 73%.
On to `CCCCCCCCCCCC(=O)O` [Lauric acid, Lauric (dodecanoic) acid], for which the “mAC5 activity [%]” value at mAC5 was 107% and 56%. Besides, the “mAC9 activity (%);(100% = Gsα stimulation) stimulated by 300nM Gsα” value on mAC9 (3 µM fatty acid) was 128% and 86% and 116%; at mAC9 (6 µM fatty acid), 165% and 99% and 97% and 190%. Also, the EC50 on mAC9 (enhancement of 300 nM Gsα-stimulated activity, read-out: EC50 for mAC9) was determined as 13.7 µM. For the same compound, the “mAC3 activity [%]” value on mAC3 is 117% and 189% and 186% and 84%. Moreover, the “mAC6 activity [%]” value at mAC6 was 93% and 80%. At mAC8, the “mAC8 activity [%]” value was 80% and 69%. Besides, the “mAC2 activity [%]” value at mAC2 was 89% and 79%. Also, the “mAC4 activity [%]” value at mAC4 is 54% and 104% and 67%.
`CCCCCCCC/C=C\CCCCCCCC(=O)OC` [Me-Oleate, Methyl oleate]: the “mAC7 activity [%]” value on mAC7 is 115% and 85%. For the same compound, the “mAC5 activity [%]” value on mAC5 was 60% and 91%. In addition, the “mAC9 activity [%] (100% = 300nM Gsα stimulation); 20µM fatty acid concentration” value on mAC9 was 86% and 143%. Also, the “mAC3 activity [%]” value on mAC3 was 141% and 90%. Further, the “mAC1 activity [%]” value at mAC1 was 99% and 63%. Further, at mAC6, the “mAC6 activity [%]” value is 78% and 90%. On mAC2, the “mAC2 activity [%]” value was 121% and 73%. Further, on mAC4, the “mAC4 activity [%]” value is 77% and 99%.
